This is an account of results in publication PMC10948969 (Nature cancer, 2023).

Bounds are passed on as bounds.

In data set [1] the test system is WNT reporter (TOP-GFP). Kind of data set: TOP-GFP Wnt reporter in MYC-CTNNB1 organoids. It is filed as cell-based, mouse. Particulars: 24 h after treatment.
Data set [2] relates to MYC-CTNNB1 tumor organoid allografts. Briefly: MYC-CTNNB1 tumor organoid allografts in C57BL/6 mice. The following applies: 30 mg kg−1 daily oral gavage, treatment from 100 mm3. The data set is classed as in vivo, mouse.
Data set [3] has as its system MYC-Tp53 tumor organoid allografts. Kind of data set: MYC-Tp53 tumor organoid allografts in C57BL/6 mice. Particulars: 30 mg kg−1 daily oral gavage, treatment from 100 mm3. The data set is classed as in vivo, mouse.
Data set [4] relates to CTNNB1-mutated HCC (MYC-lucOS; CTNNB1). Briefly: Hydrodynamic tail-vein. The data set is classed as in vivo, mouse. The following applies: 5 d on and 2 d off.
Data set [5] deals with ERK1 (Homo sapiens, UniProt P27361). Kind of data set: In vitro kinase assay with EZH2 T367 peptide, ERK. Particulars: inhibitor 1 μM, EZH2 peptide 1 μM. The data set is classed as biochemical.
Data set [6] has as its target p38 (MAPK14) (Homo sapiens, UniProt Q16539). Kind of data set: In vitro kinase assay with EZH2 T367 peptide, p38. It is filed as biochemical. The following applies: inhibitor 1 μM, EZH2 peptide 1 μM.
In data set [7] the test system is KIT, PDGFRα/β, VEGFR1/2, RET and FLT3. Briefly: Kinome profiling. The data set is classed as binding. The following applies: in vitro kinome selectivity profile.
Data set [8] in a line: Single-dose oral pharmacokinetics in BALB/c mice. It is filed as in vivo, mouse.
For data set [9], the system named is HEPG2 cells. Briefly: Drug toxicity. It is filed as cell-based, human. The following applies: 3 d.
Data set [10] is described as follows: In vivo dose escalation / tolerability in mice.
For data set [11], the system named is MYC-CTNNB1 tumor organoids. Kind of data set: Drug toxicity. The data set is classed as cell-based, mouse.

Sequence of ERK1 (P27361 whole entry): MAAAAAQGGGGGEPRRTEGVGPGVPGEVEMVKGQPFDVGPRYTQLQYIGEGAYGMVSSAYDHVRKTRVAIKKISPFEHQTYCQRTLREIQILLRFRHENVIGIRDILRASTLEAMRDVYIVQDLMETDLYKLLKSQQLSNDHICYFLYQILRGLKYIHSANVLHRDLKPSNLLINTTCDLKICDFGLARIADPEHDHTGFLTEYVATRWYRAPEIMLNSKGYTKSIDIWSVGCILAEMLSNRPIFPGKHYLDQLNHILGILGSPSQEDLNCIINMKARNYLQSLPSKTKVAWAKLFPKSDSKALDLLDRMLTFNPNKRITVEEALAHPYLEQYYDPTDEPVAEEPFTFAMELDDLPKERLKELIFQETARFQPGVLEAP
Sequence of p38 (MAPK14) (Q16539 whole entry): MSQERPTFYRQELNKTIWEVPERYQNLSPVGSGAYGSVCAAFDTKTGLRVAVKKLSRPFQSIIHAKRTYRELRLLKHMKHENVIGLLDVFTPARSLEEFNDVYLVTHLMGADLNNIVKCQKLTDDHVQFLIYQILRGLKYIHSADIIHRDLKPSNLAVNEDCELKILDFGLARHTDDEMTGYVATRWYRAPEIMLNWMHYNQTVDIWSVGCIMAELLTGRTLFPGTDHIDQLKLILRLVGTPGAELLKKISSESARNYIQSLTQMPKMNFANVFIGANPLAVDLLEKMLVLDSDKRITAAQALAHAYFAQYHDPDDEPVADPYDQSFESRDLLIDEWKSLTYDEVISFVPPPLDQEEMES

With `CCCc1cc(C)[nH]c(=O)c1CNC(=O)c1cc(-c2ccnc(N3CCN(C)CC3)c2)cc2c1cnn2C(C)C` [GSK343], the “WNT-driven GFP reporter expression” value in data set [1] is listed as “neither small molecule (MS1943 or GSK343) dampened the expression of the WNT reporter”.
As for `Cc1cc(C)c(CNC(=O)c2cc(-c3ccc(N4CCN(CCNC(=O)CC56CC7CC(CC(C7)C5)C6)CC4)nc3)cc3c2cnn3C(C)C)c(=O)[nH]1` [MS1943], the “WNT-driven GFP reporter expression” value in data set [1] was “neither small molecule (MS1943 or GSK343) dampened the expression of the WNT reporter”.
With `CNC(=O)c1cc(Oc2ccc(NC(=O)Nc3ccc(C(F)(F)C(F)(F)F)cc3)c(F)c2)ccn1` [WNTinib], in [2], the tumor regression entry is recorded as “induced significant tumor regression”. The anti-tumor activity result in data set [3] is “inactive”. Besides, the “survival of remaining animals after the final dosing” value in [4] (20 mg kg−1 oral) is above 300 days. The “fraction of treatment arm that succumbed to death” value in [4] (20 mg kg−1 oral, started 7 d post-injection) was 40%. Also, in data set [5], the “inhibition of EZH2 Thr367 peptide phosphorylation by ERK” value is “did not inhibit this phosphorylation in vitro”. Moreover, the “WNT-driven GFP reporter expression” value in data set [1] is given as “the only compound to downregulate WNT-driven GFP expression”. The “inhibition of EZH2 Thr367 peptide phosphorylation by p38” value in [6] is “did not inhibit this phosphorylation in vitro”. Further, the “inhibition of proposed key targets of sorafenib and regorafenib” value in data set [7] was “maintained potent inhibition”. Further, the plasma concentration in [8] (24 h after oral dosing, 20 mg kg−1, BALB/c mice) amounted to 7 µM. In addition, in data set [8] (BALB/c mice, oral, 20 mg kg−1), the half-life (in general, the time in which the quantity being followed falls by half) is 9.38 h. For the same molecule, the “detectable quantities of drug in blood plasma post-dosing” value in [8] (oral, 20 mg kg−1) is on record as “up to 72 h”. The “efficacy with drug-resistant p38α (Thr106Met) or BRAF (Thr529Asn)” value in data set [9] (HEPG2 transduced with gatekeeper mutants vs parental) is listed as “largely unchanged”. Besides, the “activity under MEK overexpression” value in data set [9] (constitutively active MEK1 (Ser218Asp, Ser222Asp) in HEPG2) is recorded as “effectively eliminated WNTinib activity”. Further, in data set [9] (constitutively active MKK6 (Ser207Glu, Thr211Glu) vs parental HEPG2), the “shift of IC50 by MKK6 overexpression” value is reported as ~ 30 fold. Also, in data set [9] (doxycycline-inducible activated KIT double mutant in HEPG2), the “efficacy under activated KIT overexpression” value is on record as “greatly reduced”. Further, in [10] (mice treated for >3 weeks, consistent with on-target KIT inhibition), the “phenotype on extended treatment” value was “fur depigmentation”. For the same molecule, in data set [10] (three mouse strains, dosed daily for 2 weeks, oral dose escalation), the “signs of sickness or toxicity” value was “No mice showed signs of sickness, or evident toxicity in the liver, intestine or kidney”. Also, the 50% inhibitory concentration (IC50) (as a rule, the concentration that gives 50% inhibition) in data set [11] (read-out: IC50 in MYC-CTNNB1 organoids, without cKit knockdown, treated 3 d) was below 1000 nM. Besides, the “combination index (CI) with dabrafenib” value in data set [11] (titration of BRAF inhibitor dabrafenib, 3 d, CI > 1 = antagonized) is listed as above 1. Further, in data set [11] (titration of KIT ligand SCF, 3 d, CI >1 = antagonized), the “combination index (CI) with SCF” value is listed as above 1. Also, the “combination index (CI) with SB202190” value in [11] (titration of p38α/β inhibitor SB202190, 3 d, CI > 1 = antagonized) was above 1.
Turning to `COc1cc2nccc(Oc3ccc(NC(=O)NC4CC4)c(Cl)c3)c2cc1C(N)=O` [lenvatinib], the anti-tumor activity result in data set [3] is “measurable anti-tumor activity”.
Same read-out and setting: then `CNC(=O)c1cc(Oc2ccc(NC(=O)Nc3ccc(Cl)c(C(F)(F)F)c3)c(F)c2)ccn1` [regorafenib], with “measurable anti-tumor activity”.
As to `CNC(=O)c1cc(Oc2ccc(NC(=O)Nc3ccc(Cl)c(C(F)(F)F)c3)cc2)ccn1` [sorafenib, reference compound], the anti-tumor activity entry in data set [3] is given as “measurable anti-tumor activity”. For the same molecule, in data set [4] (30 mg kg−1 oral, started 7 d post-injection), the survival benefit worked out at 7.5 days. The half-life in data set [8] (female, BALB/c, mouse, plasma, po, 20 mg/kg) was 8 h.
